Results: US9334231B2, “Photoreactive synthetic regulator of protein function and methods of use thereof” (The Regents of the University of California, priority 2008, dated 2016)
Where a name gives a salt, the structure may show the parent alone.

Legend:
[1] = biological target: T1, Sh-IR internal TEA binding site (Drosophila melanogaster, UniProt P08510, DEL6-46); assay: Inside-out patches from HEK293 cells expressing Sh-IR, dose-response under 380 and 500 nm light; format: cell-based; conditions: inside-out patch
T1 construct: expressed in transfected cells; host or cells: HEK293 / HEK293T cells, calcium phosphate transfection
T1 sequence (P08510 with tags, fused parts or gaps DEL6-46): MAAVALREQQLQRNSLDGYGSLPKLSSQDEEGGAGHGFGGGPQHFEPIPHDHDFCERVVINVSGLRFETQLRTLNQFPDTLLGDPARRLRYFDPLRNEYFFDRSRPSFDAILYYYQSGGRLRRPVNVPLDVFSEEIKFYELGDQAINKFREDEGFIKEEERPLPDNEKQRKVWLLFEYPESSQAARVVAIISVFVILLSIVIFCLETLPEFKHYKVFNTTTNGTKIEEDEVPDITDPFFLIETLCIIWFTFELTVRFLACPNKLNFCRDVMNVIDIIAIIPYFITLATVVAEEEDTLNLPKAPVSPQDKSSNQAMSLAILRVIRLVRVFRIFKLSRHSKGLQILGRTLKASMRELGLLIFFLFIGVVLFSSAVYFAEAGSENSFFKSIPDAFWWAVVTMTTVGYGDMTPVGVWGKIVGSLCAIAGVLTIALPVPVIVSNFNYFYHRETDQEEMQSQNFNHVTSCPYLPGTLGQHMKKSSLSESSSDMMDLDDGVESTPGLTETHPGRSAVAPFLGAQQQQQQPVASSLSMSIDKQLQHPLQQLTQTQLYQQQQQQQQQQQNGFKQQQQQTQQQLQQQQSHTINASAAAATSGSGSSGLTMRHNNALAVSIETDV

[2] = illumination at 420 nm
[3] = system: endogenous K+ channels in dissociated hippocampal neurons; conditions: preincubation at 300 nM; cited from earlier work
[4] = biological target: T2, Shaker IR channels (Sh-IR) (Drosophila melanogaster, UniProt P08510, DEL6-46); assay: Whole-cell patch clamp of HEK293 cells expressing Shaker IR after AAQ/EtAcAQ/AcAQ treatment; format: cell-based; conditions: 500-nm and 380-nm light; for block of steady-state current: after blocker pre-treatment (400 uM in FIG. 2)
T2 construct: expressed in transfected cells; host or cells: HEK293 / HEK293T cells, calcium phosphate transfection
T2 sequence (P08510 other isoform, or with tags, fused parts or gaps DEL6-46): as the sequence (P08510 with tags, fused parts or gaps DEL6-46) above

Kν channels = assay: Stated characteristics of exemplary synthetic regulators (channel block)
Sh-IR = biological target: T3, Sh-IR (Drosophila melanogaster, UniProt P08510, DEL6-46); assay: AzoQA structure-activity screen: HEK293T cells expressing Sh-IR, applied in dark, washout, whole-cell voltage clamp; format: cell-based; conditions: for isomer preference of block: cis (380 nm) versus trans (500 nm)
T3 construct: expressed in transfected cells; host or cells: HEK293 / HEK293T cells, calcium phosphate transfection
T3 sequence (P08510 other isoform, or with tags, fused parts or gaps DEL6-46): as the sequence (P08510 with tags, fused parts or gaps DEL6-46) above
Text: Solutions were adjusted to 300-310 mOsm.
These AzoQA's were applied in dark, which favors the trans configuration, at various concentrations to HEK293T cells expressing Sh-IR, followed by washout and whole-cell voltage clamp recording.

[5] = system: endogenous K+ channels in dissociated hippocampal neurons
[6] = Isomerization wavelengths of red-shifted regulator; format: physicochemical
[7] = system: Shaker K channel, Kν2.1, Kν3.1, Kν4.2, hippocampal Kν; assay: QAQ photoswitching of voltage gated K channels (QAQ in the pipette); format: cell-based
Method: (§1) Experiments were conducted to test the effect of QAQ on various channels.
(§2) Purple light was used in all cases to relieve the block. FIG. 6 depicts a bar graph showing the quantification of photoswitching on individual channels when having 100 μM QAQ in the pipette.

[8] = system: native Na channels expressed in NG108-15 cells (Naν); assay: QAQ photoswitching of native Na channels in NG108-15 cells; format: cell-based
Method: as §1, §2

[9] = system: L type and N type Ca channels (L-type Caν, Caν2.2); assay: QAQ photoswitching of Ca channels; format: cell-based
Method: as §1, §2

neurons = assay: Neuron firing under current clamp with QAQ; format: cell-based; conditions: progressively greater current injected
Text: The effect of QAQ on neurons was investigated. Neuron firing was examined under current clamp, by injecting progressively greater current into the cell, under 2 different wavelengths of light. […] This is because block of Na channels dominates: when Na channels are blocked, the initial phase of the AP is blocked and neurons are silent. Again, QAQ acts like lidocaine in neurons, silencing cells under green light or in the dark.

Shaker channel = biological target: T4, Shaker channel (Drosophila melanogaster, UniProt P08510); assay: QAQ membrane permeance: patch pipette versus external application, HEK cells expressing Shaker channel; format: cell-based
T4 construct: expressed in transfected cells; host or cells: HEK cells
T4 sequence (P08510 whole entry): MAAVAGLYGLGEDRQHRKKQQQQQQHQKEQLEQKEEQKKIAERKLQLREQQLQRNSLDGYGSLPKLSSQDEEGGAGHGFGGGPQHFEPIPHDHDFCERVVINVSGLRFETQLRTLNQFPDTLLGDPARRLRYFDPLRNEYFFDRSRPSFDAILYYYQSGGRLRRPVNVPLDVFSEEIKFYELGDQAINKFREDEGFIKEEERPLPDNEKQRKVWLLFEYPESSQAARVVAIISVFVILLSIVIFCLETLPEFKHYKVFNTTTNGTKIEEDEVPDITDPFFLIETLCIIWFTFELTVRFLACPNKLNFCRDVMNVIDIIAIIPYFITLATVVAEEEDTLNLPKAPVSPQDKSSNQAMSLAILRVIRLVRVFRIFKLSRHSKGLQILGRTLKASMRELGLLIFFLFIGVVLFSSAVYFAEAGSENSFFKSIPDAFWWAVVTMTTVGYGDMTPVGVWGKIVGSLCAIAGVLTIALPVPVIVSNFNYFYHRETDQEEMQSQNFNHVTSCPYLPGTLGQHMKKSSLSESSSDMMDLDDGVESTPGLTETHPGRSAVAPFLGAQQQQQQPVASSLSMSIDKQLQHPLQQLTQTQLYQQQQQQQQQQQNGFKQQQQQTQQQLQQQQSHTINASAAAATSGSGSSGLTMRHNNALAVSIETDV
Text: The K current was observed upon a depolarization to +40 mV under purple 380 nm light.

P2X7R [10] = biological target: T5, P2X7R (Homo sapiens, UniProt Q99572); assay: Loading of QAQ through P2X7R in HEK cells co-expressing Shaker channel; format: cell-based
T5 construct: expressed in transfected cells; host or cells: HEK cells, co-expressed with Shaker channel
T5 sequence (Q99572 1-595): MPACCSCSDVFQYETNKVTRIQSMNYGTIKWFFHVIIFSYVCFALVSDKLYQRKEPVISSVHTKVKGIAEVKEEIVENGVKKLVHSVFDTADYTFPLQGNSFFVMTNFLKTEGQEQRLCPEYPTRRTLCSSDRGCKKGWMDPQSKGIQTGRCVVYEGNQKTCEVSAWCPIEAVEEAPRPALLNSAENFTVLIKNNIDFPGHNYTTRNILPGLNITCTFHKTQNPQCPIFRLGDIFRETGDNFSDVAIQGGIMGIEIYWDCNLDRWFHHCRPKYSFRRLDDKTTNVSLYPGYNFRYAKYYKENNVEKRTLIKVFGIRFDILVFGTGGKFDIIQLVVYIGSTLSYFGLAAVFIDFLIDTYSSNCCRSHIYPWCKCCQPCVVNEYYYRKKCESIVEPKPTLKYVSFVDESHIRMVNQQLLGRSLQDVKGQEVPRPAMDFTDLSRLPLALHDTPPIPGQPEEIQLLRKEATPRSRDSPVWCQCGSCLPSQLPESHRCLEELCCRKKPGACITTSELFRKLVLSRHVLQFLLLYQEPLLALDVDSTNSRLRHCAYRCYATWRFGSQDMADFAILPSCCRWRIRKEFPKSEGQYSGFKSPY
Text: (§3) Advantage was taken of the biophysical properties of certain ion channels. TRPV1 channel and the ATP gated P2X7 receptor can open a wide pore upon prolonged agonist exposure. This pore becomes then permeable to large organic cations like the local anesthetic QX314. It was investigated whether QAQ could be loaded into cells expressing either one of these two channels (P2X7R or TRPV1). If so, specific cells could be targeted with QAQ, and then excitability could be controlled with light. This concept is depicted schematically in FIG. 8.
(§4) It was first determined whether P2X7R expressed in HEK cells could be an entry route for QAQ. P2X7R was co-expressed together with Shaker channel.

TRPV1 = biological target: T6, TRPV1 (Homo sapiens, UniProt Q8NER1); assay: Loading of QAQ through TRPV1 in cells co-expressing Shaker channel; format: cell-based
T6 construct: expressed in transfected cells; the context is HEK cells
T6 sequence (Q8NER1 whole entry, species assumed): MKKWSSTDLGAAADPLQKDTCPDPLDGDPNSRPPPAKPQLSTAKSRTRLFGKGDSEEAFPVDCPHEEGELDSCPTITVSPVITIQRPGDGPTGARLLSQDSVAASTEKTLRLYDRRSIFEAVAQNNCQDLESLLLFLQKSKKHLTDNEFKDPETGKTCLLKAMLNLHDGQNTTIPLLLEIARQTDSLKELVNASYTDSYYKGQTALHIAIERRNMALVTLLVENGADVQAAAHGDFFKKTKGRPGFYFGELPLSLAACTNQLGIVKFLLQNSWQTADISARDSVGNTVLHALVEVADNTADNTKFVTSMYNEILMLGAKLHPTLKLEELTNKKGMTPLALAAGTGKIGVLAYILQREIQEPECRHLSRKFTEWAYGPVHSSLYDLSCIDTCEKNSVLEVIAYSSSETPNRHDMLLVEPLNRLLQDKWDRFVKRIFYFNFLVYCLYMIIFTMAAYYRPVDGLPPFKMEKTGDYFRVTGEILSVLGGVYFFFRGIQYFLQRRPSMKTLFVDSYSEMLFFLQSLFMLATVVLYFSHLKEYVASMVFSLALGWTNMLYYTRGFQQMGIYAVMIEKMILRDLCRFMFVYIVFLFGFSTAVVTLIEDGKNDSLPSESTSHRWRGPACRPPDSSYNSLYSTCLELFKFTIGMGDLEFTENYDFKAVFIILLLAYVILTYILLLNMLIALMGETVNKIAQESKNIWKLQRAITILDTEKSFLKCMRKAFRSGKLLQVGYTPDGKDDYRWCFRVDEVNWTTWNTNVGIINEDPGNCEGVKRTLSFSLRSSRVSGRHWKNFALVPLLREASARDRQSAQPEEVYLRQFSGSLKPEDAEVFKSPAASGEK
Text: as §3, §4

P2X7R [11] = biological target: T5, P2X7R; assay: Loading of QAQ into hippocampal neurons transfected with P2X7R; format: cell-based
Text: (§5) Hippocampal neurons were transfected with P2X7R. […] In 1 of 13 cells tested, QAQ entered a cell which was not heterologously expressing P2X7R, possibly because this cell was expressing endogenous P2X7 receptors. It was then asked whether QAQ could enter cells naturally expressing either of these channels and looked at sensory neurons. Sensory neurons are activated by sensory input and project towards the central nervous system. Sensory neurons of the trigeminal ganglia naturally express TRPV1 channels. QAQ was applied together with capsaicin on these sensory neurons in in vitro culture.

[12] = system: native K channels of sensory neurons naturally expressing TRPV1; assay: QAQ with capsaicin on sensory neurons of the trigeminal ganglia in culture; format: cell-based; conditions: QAQ applied together with capsaicin
Text: as §5

[13] = system: capsaicin-evoked nocifensive behaviors; assay: Capsaicin-evoked nocifensive behaviors after hindpaw injection; format: in vivo, mouse; conditions: co-injection with capsaicin into hindpaw, 10 min, versus capsaicin alone
Method: It was shown (Example 3) that QAQ blocks capsaicin-evoked sensory neuron activation in vitro, in a light-dependent manner. It was then tested whether QAQ can block nocifensive responses in vivo, and whether this action can be regulated by light. This experiment consisted of 2 parts: (1) it was tested whether QAQ acts as an analgesic, in the absence of light. […] Injection of capsaicin into the mouse hindpaw elicits a 5-10 min bout of licking and flinching; such responses are blocked by co-application of lidocaine, morphine, and other analgesics (Binshtock et al., 2007 Nature 449:607-10). Because analgesics are molecules that alleviate pain, evaluating the analgesic properties of a new molecule requires induction of discomfort in animals. The ability of QAQ to inhibit capsaicin-evoked nocifensive behaviors was tested. Fourteen mice were used for this experiment: to one set of 7 mice, capsaicin alone was applied by injection; to a second set of 7 mice, capsaicin and QAQ were co-injected. The mice were then placed in a transparent Plexiglas chamber and behavior was video recorded for 10 min. After 10 min, mice were euthanized.

[14] = 100 μM QAQ in the pipette, purple light relieves block

SMILES: C=CC(=O)Nc1ccc(/N=N/c2ccc(NC(=O)C[N+](CC)(CC)CC)cc2)cc1 [AAQ, Acrylamide Azobenzene Quaternary ammonium]
- current block after washout with control solution [1]: relieved within several seconds of washout
- IC50 ([1]; 380 nm light, n=3-5, read-out: IC50 (cis isomer)): 64 µM
- cis isomer content [2]: 50%
- photosensitization of endogenous K+ channels [3]: strongly photosensitize endogenous K^+

SMILES: CC[N+](CC)(CC)CC(=O)Nc1ccc(N=Nc2ccc(NC(C)=O)cc2)cc1.O=C[O-] [AcAQ, 4-acetamido-4′-(2)-triethylammoniumacetamidoazobenzene formate]
- block of steady-state current [4]: persistently blocked the steady-state current in a light-dependent fashion
- photoswitching after pre-treatment ([4]; extracellular pre-treatment): considerable sustained photoswitching

SMILES: CC[N+](CC)(CC)CC(=O)Nc1ccc(/N=N/c2ccc(NC(=O)c3ccccc3)cc2)cc1 [BzAQ, 4-benzamido-4′-(2)-triethylammoniumacetamidoazobenzene formate]
- channels blocked / selectivity (Kν channels): selective for Kν channels
- external or internal blocker (Kν channels): external blocker
- isomeric form that blocks (Kν channels): trans-blocker
- minimal dose able to block >95% of Iss (Sh-IR; Iss relative to that under 380 nm illumination, extracellular treatment in dark): 25 µM
- Iss blocked ([5]; 20 μM BzAQ extracellular, Iss at +30 mV compared at 380 and 500 nm): 57+/−6.6%
- action potential firing ([5]; current clamp, cell near threshold, 500 nm light): sufficient to induce action potential firing
- effect on cellular membrane potential ([5]; current clamp, switched from cis to trans): significantly depolarize the cellular membrane potential

SMILES: CCN(CC)c1ccc(/N=N/c2ccc(NC(=O)C[N+](CC)(CC)CC)cc2)cc1 [DAAQ]
- channels blocked / selectivity (Kν channels): able to block Kν channels
- external or internal blocker (Kν channels): external blocker
- isomeric form that blocks (Kν channels): trans-blocker
- wavelength of first isomeric form [6]: 472 nm
- wavelength of second isomeric form [6]: 550 nm

SMILES: CCC(=O)Nc1ccc(N=Nc2ccc(NC(=O)C[N+](CC)(CC)CC)cc2)cc1 [EtAcAQ]
- block of steady-state current [4]: persistently blocked the entire steady-state current in a light-dependent fashion

SMILES: CCCc1ccc(N=Nc2ccc(NC(=O)C[N+](CC)(CC)CC)cc2)cc1.O=C[O-] [PrAQ, 4-propyl-4′-(2)-triethylammoniumacetamidoazobenzene formate]
- block of Iss in the cis form (Sh-IR; 40 nM): 50%
- block by the trans isomer (Sh-IR; 40 nM, 500 nm): without producing obvious block
- isomer preference of block (Sh-IR): preferentially blocks in the cis form

SMILES: CC[N+](CC)(CC)CC(=O)Nc1ccc(/N=N/c2ccc(NC(=O)C[N+](CC)(CC)CC)cc2)cc1 [QAQ]
- channels blocked / selectivity (Kν channels): able to block Kν, Naν, and Caν channels
- external or internal blocker (Kν channels): internal blocker
- isomeric form that blocks (Kν channels): trans-blocker
- photoregulation of K channels [7]: photoregulate Shaker K channel and also other K channel subtypes such as Kν2, Kν3 Kν4 and native K channels in hippocampal cells
- light condition of block [7, 14]: the block occurred in the dark, or under 500 nm light
- photosensitization of Na channels [8]: photosensitizes native Na channels expressed in NG108-15 cells
- light condition of block [8, 14]: the block occurred in the dark, or under 500 nm light
- photosensitization of Ca channels [9]: photosensitize L type and N type Ca channels
- light condition of block [9, 14]: the block occurred in the dark, or under 500 nm light
- neuron firing under green light (neurons): does at best one action potential (AP), but remains silent
- neuron firing under purple light (neurons): fires normally
- membrane permeance (Shaker channel): membrane impermeant
- photoregulation of K current, applied through the patch pipette (Shaker channel; 100 μM QAQ, +40 mV, 380 nm versus green light): photoregulation of the K channel current was observed
- photoregulation of K current, externally applied (Shaker channel; external application): no photoregulation of K current was seen
- loading into HEK cells (P2X7R [10]; P2X7R co-expressed with Shaker, ATP coapplied): could be loaded in the HEK cell only if P2X7 channels were expressed and ATP, the agonist for the P2X7 channels, was coapplied
- photoswitching of Shaker channels current (P2X7R [10]; application of 5 min with ATP): very good photoswitching
- loading into cells (TRPV1; TRPV1 co-expressed with Shaker, capsaicin): could be loaded into cells co-expressing TRPV1 and Shaker channel in the presence of the TRPV1 agonist capsaicin
- photoswitching (TRPV1; loaded in the presence of capsaicin): photoswitching could be effected
- loading into hippocampal neurons (P2X7R [11]; ATP): could be loaded into cells only when P2X7 receptors were expressed
- cells not heterologously expressing P2X7R that QAQ entered (P2X7R [11]; cells tested): 1 of 13
- photoswitching of native K channels [12]: very robust photoswitching of native K channels
- number of licks [13]: reduced
- time spent paw lifting [13]: reduced

SMILES: C=CCCC(=O)Nc1ccc(N=Nc2ccc(NC(=O)C[N+](CC)(CC)CC)cc2)cc1.O=C[O-] [compound 10, 4-(pent-4-en)amido-4′-(2)-triethylammoniumacetamidoazobenzene formate]
- isomer preference of block (Sh-IR): essentially equal block in both cis and trans forms
